≈ marks a conversion by molar mass, not a printed value. Read-outs that look alike come from different tables or passages of the source.
Assays:
[1] = EE2 plasma pharmacokinetics alone and with SYM-1219 2 grams (Example 2, Part B); format: in vivo, human
clinical = conditions: female, human, plasma, Mean (% CV); for AUC(0-t): NET AUC0-t; for AUC(0-inf): NET AUC0-∞; for Cmax: NET Cmax
[2] = system: clinical isolates of T. vaginalis; assay: Susceptibility testing, minimal lethal concentration (MLC), aerobic; format: cell-based, Trichomonas vaginalis
Protocol: Susceptibility testing was conducted with one hundred (100) clinical isolates of T. vaginalis.
Archived, de-identified, clinical isolates of T. vaginalis that were banked in liquid nitrogen were used for this study. The samples had been collected between July 2015 and June 2017, in accordance with institutional review board guidelines, and all patients had consented to the storage and use of their samples for subsequent testing. […] In brief, trichomonads were grown in Diamond's medium 1025 (containing trypticase soy broth, yeast extract, maltose, and calf serum) adjusted to pH 5.9 and supplemented with streptomycin at 1 g/liter and penicillin G at 100 U/ml. A hemocytometer was used to count the trichomonad population and to adjust it to a concentration of 66,666 cells/ml. Isolates were tested in microtiter plates under aerobic conditions. […] Plates were then incubated at 37° C. for 46 hours to 50 hours and read with a Zeiss Axiovert inverted microscope. The concentration of drug in the microplate wells in which no motile trichomonads were observed was reported as the MLC. […] Low-level resistance was defined as an aerobic MLC of 50 μg/ml to 100 μg/ml, moderate-level resistance as an aerobic MLC of 200 μg/ml, and high-level resistance as an aerobic MLC of >400 μg/ml. The MLCs for metronidazole and secnidazole were analyzed using the Wilcoxon signed-rank test to evaluate the differences between treatments.
Each well of a 96-well plate was filled with 150 μL of T. vaginalis suspension in Diamond's growth media (10^4 trichomonads). […] Cultures were visually assessed for survival, defined by observation of motility, through a 100× inverted microscope.

[3] = CDC 2015 Guidelines - Trichomoniasis; cited from earlier work
T. vaginalis = conditions: cited from earlier work; for Cure rates in randomized clinical trials of recommended regimens: CDC 2015 Guidelines - Trichomoniasis
[4] = Group B1 (SYM-1219 2 grams co-administered on Day 1)
[5] = Group B1: Period 2 (SYM-1219 2 grams same day) vs Period 1 (EE2/NET alone)
[6] = Group B1 Period 1: EE2/NET alone
[7] = Group B1 Period 2: EE2/NET followed by SYM-1219 2 grams on Day 1
[8] = Group B2 (EE2/NET 1 day after SYM-1219 2 grams)
[9] = Group B2: Period 2 (EE2/NET 1 day after SYM-1219 2 grams) vs Period 1 (EE2/NET alone)
[10] = Group B2 Period 1: EE2/NET alone
[11] = Group B2 Period 2: SYM-1219 2 grams on Day 1, EE2/NET on Day 2
[12] = 100 clinical T. vaginalis isolates
[13] = 100 clinical T. vaginalis isolates, aerobic, 46-50 h
[14] = meta-analysis of six published studies

## C#C[C@]1(O)CC[C@H]2[C@@H]3CCc4cc(O)ccc4[C@H]3CC[C@@]21C [EE2, ethinyl estradiol]
[1]; [4]
  Change in EE2 AUC: no change
  EE2 Cmax reduced by: 29%
[1]; [5]
  EE2 AUC0-t, Geometric LSMean % Ratio (SE), 100*Test/Reference: 94.26 (2.683) %
  EE2 AUC0-∞, Geometric LSMean % Ratio (SE), 100*Test/Reference: 105.37 (4.565) %
  EE2 Cmax, Geometric LSMean % Ratio (SE), 100*Test/Reference: 71.07 (4.951) %
[1]; [6]
  EE2 AUC0-t, Mean (% CV): 643.67 (23.85) h*pg/mL
  EE2 Cmax, Geometric Least Squares (LS) Means (SE): 77.92 (3.839) pg/mL
  EE2 Cmax, Mean (% CV): 80.63 (26.84) pg/mL
[1]; [7]
  EE2 AUC0-t, Geometric Least Squares (LS) Means (SE): 590.74 (11.892) h*pg/mL
  EE2 Cmax, Geometric Least Squares (LS) Means (SE): 55.38 (2.728) pg/mL
  EE2 Cmax, Mean (% CV): 59.88 (42.19) pg/mL
[1]; [8]
  EE2 PK alteration: not altered
[1]; [9]
  EE2 AUC0-t, Geometric LSMean % Ratio (SE), 100*Test/Reference: 99.04 (2.291) %
  EE2 AUC0-∞, Geometric LSMean % Ratio (SE), 100*Test/Reference: 93.32 (3.570) %
  EE2 Cmax, Geometric LSMean % Ratio (SE), 100*Test/Reference: 104.96 (4.034) %
[1]; [10]
  EE2 AUC0-t, Geometric Least Squares (LS) Means (SE): 649.96 (10.631) h*pg/mL
  EE2 AUC0-t, Mean (% CV): 680.48 (28.91) h*pg/mL
[1]; [11]
  EE2 AUC0-t, Geometric Least Squares (LS) Means (SE): 643.74 (10.529) h*pg/mL
  EE2 Cmax, Geometric Least Squares (LS) Means (SE): 87.16 (2.369) pg/mL

## C#C[C@]1(O)CC[C@H]2[C@@H]3CCC4=CC(=O)CC[C@@H]4[C@H]3CC[C@@]21C [NET, norethindrone]
EE2/NET administered 1 day after SYM-1219
  NET Cmax, AUC0-t or AUC0-∞ increased by: 9-16%
[4]
  NET Cmax and AUC increased: 13%
[5]
  NET AUC0-t, Geometric LSMean % Ratio (SE), 100*Test/Reference: 115.52 (5.828) %
  NET AUC0-∞, Geometric LSMean % Ratio (SE), 100*Test/Reference: 116.27 (6.032) %
  NET Cmax, Geometric LSMean % Ratio (SE), 100*Test/Reference: 113.18 (7.958) %
[6]
  NET λz, Mean: 0.07709 h⁻¹
  NET λz, Median: 0.07966 h⁻¹
[7]
  NET t1/2, Median: 9.12 h
  NET λz, Mean: 0.07886 h⁻¹
  NET λz, Median: 0.07642 h⁻¹
[8]
  Change in NET AUC: no change
  NET Cmax increased by: 16%
[9]
  NET AUC0-t, Geometric LSMean % Ratio (SE), 100*Test/Reference: 110.78 (4.104) %
  NET AUC0-∞, Geometric LSMean % Ratio (SE), 100*Test/Reference: 108.75 (4.207) %
  NET Cmax, Geometric LSMean % Ratio (SE), 100*Test/Reference: 116.46 (8.178) %
[10]
  NET AUC0-∞, Median: 47.35 ng·h/mL
  NET t1/2, Median: 9.29 h
  NET λz, Mean: 0.07369 h⁻¹
  NET λz, Median: 0.07458 h⁻¹
[11]
  NET AUC0-t, Median: 44.53 ng·h/mL
  NET Cmax, Mean (% CV): 10.69 (48.34) ng/mL
  NET Cmax, Mean (SD): 10.69 (5.169) ng/mL
  NET Tmax, Median: 1.000 h
  NET t1/2, Median: 9.19 h
  NET λz, Mean: 0.07685 h⁻¹
  NET λz, Median: 0.07539 h⁻¹
SYM-1219 administered immediately after EE2/NET
  NET Cmax, AUC0-t or AUC0-∞ increased by: 13-16%
clinical; [6]
  AUC(0-t): 49.4 ng·h/mL
  AUC(0-inf): 57.8 ng·h/mL
  Cmax: 9.18 ng/mL
clinical; [7]
  AUC(0-t): 53.5 ng·h/mL
  AUC(0-inf): 62.4 ng·h/mL
  Cmax: 10.1 ng/mL
clinical; [10]
  AUC(0-t): 61.4 ng·h/mL
  AUC(0-inf): 75 ng·h/mL
  Cmax: 9.63 ng/mL
clinical; [11]
  AUC(0-t): 61.2 ng·h/mL
  AUC(0-inf): 71.5 ng·h/mL

## Cc1ncc([N+](=O)[O-])n1CCO [metronidazole]
[2]; [12]
  Isolates exhibiting moderate resistance (aerobic MLC 200 μg/ml): 1%
  Prevalence of low-level resistance (aerobic MLC 50 μg/ml to 100 μg/ml): 7%
[2]; [13]
  MLC, mean (±SD) among all isolates: 13.5 ± 26.9 µg/mL (≈ 78.9 µM)
  MLC, median: 6.3 µg/mL (≈ 36.8 µM)
[2]; single clinical isolate
  MLC in the one isolate with a higher MLC for secnidazole than for metronidazole: 1.6 µg/mL
[3]
  Half-life: 7.3 h
T. vaginalis
  Cure rates in randomized clinical trials of recommended regimens: 84%-98%
T. vaginalis; HIV-positive women with trichomoniasis (Kissinger 2010)
  Cure rate for single dose treatment: 83.2%
T. vaginalis; HIV-uninfected, non-pregnant women, 2018 comparison study
  Increase in treatment failures with single-dose 2-gram vs 7-day dose (500 mg twice daily): 45%
T. vaginalis; [14]
  Fewer treatment failures with 7 day-dose compared to single-dose: 46%
  Test of cure (TOC) positive rates after single-dose: 6.2% to 18.0%

## CCS(=O)(=O)CCn1c([N+](=O)[O-])cnc1C [tinidazole]
[3]
  Half-life: 12.5 h
T. vaginalis
  Cure rates in randomized clinical trials of recommended regimens: 92%-100%

Source: patent US12280037B2, “Method and pharmaceutical composition for treating or preventing trichomoniasis and uses thereof” (EVOFEM BIOSCIENCES, INC., priority 2020, dated 2025)
